Results as given in patent publication US9096560B2, “5-heterocyclylalkyl-3-hydroxy-2-phenylcyclopent-2-enones as herbicides” (Syngenta Limited, priority 2008, dated 2015).

Key:
Type in all cases: in vivo
Lolium perenne (LOLPE) [1] = test: Example B pre-emergence herbicidal test, LOLPE; settings: Lolium perenne, 312 h, rate 250 g/ha, evaluated after 13 days, 100=total damage to plant, 0=no damage to plant
In short: (§1)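 After sowing in standard soil, pots spent a day in the glasshouse (24/16° C, 14 h photoperiod, 65% humidity) before spraying with compound in acetone/water 50:50 with 0.5% Tween 20. Watering followed twice a day, and plants were evaluated 13 days on, with 100 meaning complete damage.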

[2] = system: Alopecurus myosuroides (ALOMY); test: Example B pre-emergence herbicidal test, ALOMY; settings: Alopecurus myosuroides, 312 h, rate 250 g/ha, evaluated after 13 days, 100=total damage to plant, 0=no damage to plant
In short: as §1

[3] = system: Echinochloa crus-galli (ECHCG); test: Example B pre-emergence herbicidal test, ECHCG; settings: Echinochloa crus-galli, 312 h, rate 250 g/ha, evaluated after 13 days, 100=total damage to plant, 0=no damage to plant
In short: as §1

Avena fatua (AVEFA) [4] = test: Example B pre-emergence herbicidal test, AVEFA; settings: Avena fatua, 312 h, rate 250 g/ha, evaluated after 13 days, 100=total damage to plant, 0=no damage to plant
In short: as §1

Lolium perenne (LOLPE) [5] = test: Example B post-emergence herbicidal test, LOLPE; settings: Lolium perenne, 312 h, rate 250 g/ha, evaluated after 13 days, scale 0-100, read-out: Post-emergence activity LOLPE (100=total damage to plant; 0=no damage to plant)
In short: (§2)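 Score: 0 = no damage, 100 = total damage, assessed 13 days post-spray. Plants sprayed 8 days after sowing with aqueous dilution of acetone/water (50:50) formulation containing 0.5% Tween 20.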

[6] = system: Alopecurus myosuroides (ALOMY); test: Example B post-emergence herbicidal test, ALOMY; settings: Alopecurus myosuroides, 312 h, rate 250 g/ha, evaluated after 13 days, scale 0-100, read-out: Post-emergence activity ALOMY (100=total damage to plant; 0=no damage to plant)
In short: as §2

[7] = system: Echinochloa crus-galli (ECHCG); test: Example B post-emergence herbicidal test, ECHCG; settings: Echinochloa crus-galli, 312 h, rate 250 g/ha, evaluated after 13 days, scale 0-100, read-out: Post-emergence activity ECHCG (100=total damage to plant; 0=no damage to plant)
In short: as §2

Avena fatua (AVEFA) [8] = test: Example B post-emergence herbicidal test, AVEFA; settings: Avena fatua, 312 h, rate 250 g/ha, evaluated after 13 days, scale 0-100, read-out: Post-emergence activity AVEFA (100=total damage to plant; 0=no damage to plant)
In short: as §2

SMILES	pest or weed control at 250 g/ha (Lolium perenne (LOLPE) [1]) [%]	pest or weed control at 250 g/ha [2] [%]	pest or weed control at 250 g/ha [3] [%]	pest or weed control at 250 g/ha (Avena fatua (AVEFA) [4]) [%]	pest or weed control at 250 g/ha (Lolium perenne (LOLPE) [5]) [%]	pest or weed control at 250 g/ha [6] [%]	pest or weed control at 250 g/ha [7] [%]	pest or weed control at 250 g/ha (Avena fatua (AVEFA) [8]) [%]
Cc1cc(C)c(C2C(=O)CC(CC3CCN(c4ccc(Cl)cc4)CC3)C2=O)c(C)c1 (stereo not drawn) [Compound T60]	10	10	0	0	20	30	10	10
Cc1cc(-c2ccc(F)cc2)cc(C)c1C1C(=O)C/C(=C\C2CCOCC2)C1=O (stereo not drawn) [Compound T61]	90	70	90	80	90	90	100	100
Cc1cc(-c2ccc(F)cc2)cc(C)c1C1C(=O)CC(CC2CCOCC2)C1=O (stereo not drawn) [Compound T63]	100	70	100	90	90	90	90	100
Cc1cc(-c2ccc(F)c(Cl)c2)cc(C)c1C1C(=O)C/C(=C\C2CCOCC2)C1=O (stereo not drawn) [Compound T65]	80	70	100	80	90	90	100	100
Cc1cc(C)c(C2C(=O)CC(CC3CCN(C(=O)Oc4ccccc4)CC3)C2=O)c(C)c1 (stereo not drawn) [Compound T68]	90	30	50	40	90	60	90	90
CCCCOC(=O)N1CCC(CC2CC(=O)C(c3c(C)cc(C)cc3C)C2=O)CC1 (stereo not drawn) [Compound T69]	10	0	20	10	30	30	20	30
Cc1cc(C)c(C2C(=O)CC(CC3CCN(C(=O)c4ccccc4)CC3)C2=O)c(C)c1 (stereo not drawn) [Compound T70]	70	20	60	70	80	70	80	100
Cc1cc(C)c(C2C(=O)CC(CC3CCN(C(=O)c4ccc(Cl)cc4Cl)CC3)C2=O)c(C)c1 (stereo not drawn) [Compound T71]	30	20	10	20	40	30	70	80
Cc1cc(C)c(C2C(=O)CC(CC3CCN(C(=O)c4ccccc4C)CC3)C2=O)c(C)c1 (stereo not drawn) [Compound T72]	60	30	80	20	80	50	90	80
Cc1cc(C)c(C2C(=O)CC(CC3CCN(C(=O)c4cccc(Cl)c4)CC3)C2=O)c(C)c1 (stereo not drawn) [Compound T73]	80	40	80	80	80	90	90	100
Cc1cc(C)c(C2C(=O)CC(CC3CCN(C(=O)c4ccc(Cl)c(Cl)c4)CC3)C2=O)c(C)c1 (stereo not drawn) [Compound T74]	30	30	50	20	40	70	100	90
Cc1cc(C)c(C2C(=O)CC(CC3CCN(C(=O)c4ccc(Cl)cc4)CC3)C2=O)c(C)c1 (stereo not drawn) [Compound T76]	60	30	60	20	40	90	90	100
Cc1cc(C)c(C2C(=O)CC(CC3CCN(C(=O)c4ccc(-c5ccccc5)cc4)CC3)C2=O)c(C)c1 (stereo not drawn) [Compound T77]	0	0	0	0	40	30	20	40
Cc1ccc(C(=O)N2CCC(CC3CC(=O)C(c4c(C)cc(C)cc4C)C3=O)CC2)cc1 (stereo not drawn) [Compound T78]	30	20	30	0	50	40	70	40
Cc1cc(C)c(C2C(=O)CC(CC3CCN(C(=O)C(C)(C)C)CC3)C2=O)c(C)c1 (stereo not drawn) [Compound T79]	90	60	60	20	60	60	70	80
Cc1cc(C)c(C2C(=O)CC(CC3CCN(C(=O)C(C)C)CC3)C2=O)c(C)c1 (stereo not drawn) [Compound T80]	100	70	70	70	90	90	80	100
COCC(=O)N1CCC(CC2CC(=O)C(c3c(C)cc(C)cc3C)C2=O)CC1 (stereo not drawn) [Compound T81]	80	80	60	80	90	90	80	100
Cc1cc(C)c(C2C(=O)CC(CC3CCN(C(=O)Cc4ccccc4)CC3)C2=O)c(C)c1 (stereo not drawn) [Compound T82]	90	50	60	50	90	90	80	100
CCC(=O)N1CCC(CC2CC(=O)C(c3c(C)cc(C)cc3C)C2=O)CC1 (stereo not drawn) [Compound T83]	90	60	90	70	90	80	70	100
CCCCC(=O)N1CCC(CC2CC(=O)C(c3c(C)cc(C)cc3C)C2=O)CC1 (stereo not drawn) [Compound T85]	60	60	30	20	90	90	80	90
Cc1cc(C)c(C2C(=O)CC(CC3CCN(C(=O)OCC(Cl)(Cl)Cl)CC3)C2=O)c(C)c1 (stereo not drawn) [Compound T86]	100	60	50	30	70	40	80	80
